Assay results: PubChem BioAssay AID256 (DTP/NCI, 2004)
Where “and” joins values, the source holds several entries; their conditions need not be identical. Equal values may be shown once. Toxic doses and inconclusive results are not listed.

Tested on: CD2F1 mice, L1210 leukemia ip, survival T/C
Assay: NCI In Vivo Anticancer Drug Screen. Data for tumor model L1210 Leukemia (intraperitoneal) in CD2F1 (CDF1) mice
Conditions: higher = longer survival
In short: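 Read-out first: treated-group measurement over vehicle-control measurement, expressed as a ratio. Animals bore a transplanted tumor line and were dosed with compound or vehicle.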

[1] = endpoint: mean survival time, dose: 100.0 mg/kg/injection, schedule: Q04DX003 (ip), vehicle: saline
[2] = endpoint: mean survival time, dose: 75.0 mg/kg/injection, schedule: Q01DX001 (ip), vehicle: saline
[3] = endpoint: mean survival time, dose: 150.0 mg/kg/injection, schedule: Q01DX001 (ip), vehicle: saline
[4] = endpoint: mean survival time, dose: 100.0 mg/kg/injection, schedule: Q01DX001 (ip), vehicle: saline with Tween-80
[5] = endpoint: mean survival time, dose: 100.0 mg/kg/injection, schedule: Q01DX001 (ip), vehicle: saline
[6] = endpoint: mean survival time, dose: 100.0 mg/kg/injection, schedule: Q01DX009 (ip), vehicle: saline with Tween-80
[7] = endpoint: mean survival time, dose: 200.0 mg/kg/injection, schedule: Q01DX001 (ip), vehicle: saline
[8] = endpoint: mean survival time, dose: 200.0 mg/kg/injection, schedule: Q01DX009 (ip), vehicle: saline with Tween-80
[9] = endpoint: mean survival time, dose: 400.0 mg/kg/injection, schedule: Q01DX001 (ip), vehicle: saline
[10] = endpoint: mean survival time, dose: 400.0 mg/kg/injection, schedule: Q01DX009 (ip), vehicle: saline with Tween-80
[11] = endpoint: mean survival time, dose: 200.0 mg/kg/injection, schedule: Q01DX001 (ip), vehicle: saline with Tween-80
[12] = endpoint: mean survival time, dose: 100.0 mg/kg/injection, schedule: Q04DX003 (ip), vehicle: saline with Tween-80
[13] = endpoint: mean survival time, dose: 200.0 mg/kg/injection, schedule: Q04DX003 (ip), vehicle: saline with Tween-80
[14] = endpoint: mean survival time, dose: 400.0 mg/kg/injection, schedule: Q04DX003 (ip), vehicle: saline with Tween-80
[15] = endpoint: mean survival time, dose: 25.0 mg/kg/injection, schedule: Q01DX009 (ip), vehicle: saline with Tween-80
[16] = endpoint: mean survival time, dose: 50.0 mg/kg/injection, schedule: Q01DX009 (ip), vehicle: saline with Tween-80

For `[Cl][Pt+2][Cl].[NH-]C(CO)C([NH-])CO` (configuration not stated), the T/C (endpoint: median survival time, dose: 1.25 mg/kg/injection, schedule: Q04DX003 (ip), vehicle: water) was 102 % of control, the T/C (endpoint: median survival time, dose: 2.5 mg/kg/injection, schedule: Q04DX003 (ip), vehicle: water) was 102 % of control and the T/C (endpoint: median survival time, dose: 5.0 mg/kg/injection, schedule: Q04DX003 (ip), vehicle: water) was 115 % of control. For the same compound, the T/C (endpoint: median survival time, dose: 12.5 mg/kg/injection, schedule: Q04DX003 (ip), vehicle: distilled water + Tween-80) was 156 % of control and the T/C (endpoint: median survival time, dose: 20.0 mg/kg/injection, schedule: Q04DX003 (ip), vehicle: water) was 93 % of control.
In the case of `CCCCN(CCCC)N=O`, the T/C (endpoint: mean survival time, dose: 25.0 mg/kg/injection, schedule: Q01DX009 (ip), vehicle: Klucel (hydroxypropylcellulose) (HPC)) is reported as 96 % of control, the T/C (endpoint: mean survival time, dose: 50.0 mg/kg/injection, schedule: Q01DX009 (ip), vehicle: Klucel (hydroxypropylcellulose) (HPC)) is reported as 90 % of control and the T/C (endpoint: mean survival time, dose: 100.0 mg/kg/injection, schedule: Q01DX009 (ip), vehicle: Klucel (hydroxypropylcellulose) (HPC)) is reported as 98 % of control.
For `O=C(C[n+]1cccc(C(=O)NCc2ccccc2)c1)Nc1ccccc1`, the T/C [1] was 96 % of control.
For `Cc1cc(C)c(C)c(C(=O)C(=O)c2ccccc2)c1`, the T/C (endpoint: mean survival time, dose: 75.0 mg/kg/injection, schedule: Q01DX001 (ip), vehicle: other) was 93 % of control, the T/C (endpoint: mean survival time, dose: 150.0 mg/kg/injection, schedule: Q01DX001 (ip), vehicle: other) was 94 % of control and the T/C (endpoint: mean survival time, dose: 300.0 mg/kg/injection, schedule: Q01DX001 (ip), vehicle: other) was 100 % of control.
With `COc1ccc(/C=N/O)cc1` the T/C [2] was 102 % of control, the T/C [3] was 100 % of control and the T/C (endpoint: mean survival time, dose: 300.0 mg/kg/injection, schedule: Q01DX001 (ip), vehicle: saline) was 101 % of control.
For `c1ccc([P+](c2ccccc2)(c2ccccc2)C2OCCO2)cc1`, the T/C [4] was 112 % of control.
`COC(=O)c1cc(NC(=O)Nc2cc([N+](=O)[O-])ccc2Cl)cc(C(=O)OC)c1` was tested, and the T/C (endpoint: mean survival time, dose: 50.0 mg/kg/injection, schedule: Q01DX001 (ip), vehicle: saline) was 92 % of control, the T/C [5] was 86 % of control and 94 % of control and the T/C [6] was 89 % of control and 95 % of control. The T/C (endpoint: mean survival time, dose: 100.0 mg/kg/injection, schedule: Q04DX002 (ip), vehicle: saline) was 96 % of control, the T/C [1] was 95 % of control and the T/C [7] was 89 % of control. For the same compound, the T/C [8] was 95 % of control and 102 % of control, the T/C (endpoint: mean survival time, dose: 200.0 mg/kg/injection, schedule: Q04DX002 (ip), vehicle: saline) was 93 % of control and 107 % of control and the T/C (endpoint: mean survival time, dose: 200.0 mg/kg/injection, schedule: Q04DX003 (ip), vehicle: saline) was 102 % of control. The T/C [9] was 88 % of control, the T/C [10] was 102 % of control and 103 % of control and the T/C (endpoint: mean survival time, dose: 400.0 mg/kg/injection, schedule: Q04DX002 (ip), vehicle: saline) was 91 % of control and 96 % of control. For the same compound, the T/C (endpoint: mean survival time, dose: 400.0 mg/kg/injection, schedule: Q04DX003 (ip), vehicle: saline) was 96 % of control.
`CN(C)CCCNc1cc(O)c2c(c1O)C(=O)c1ccccc1C2=O` was tested, and the T/C (endpoint: mean survival time, dose: 25.0 mg/kg/injection, schedule: Q01DX009 (ip), vehicle: water) was 98 % of control, the T/C (endpoint: mean survival time, dose: 50.0 mg/kg/injection, schedule: Q01DX009 (ip), vehicle: water) was 98 % of control and the T/C (endpoint: mean survival time, dose: 100.0 mg/kg/injection, schedule: Q01DX009 (ip), vehicle: water) was 95 % of control. The T/C (endpoint: mean survival time, dose: 200.0 mg/kg/injection, schedule: Q01DX009 (ip), vehicle: water) was 98 % of control.
For `CCOC(=O)C(Cl)C(=O)OCC`, the T/C [4] was 108 % of control and 109 % of control, the T/C [11] was 104 % of control and 105 % of control and the T/C (endpoint: mean survival time, dose: 400.0 mg/kg/injection, schedule: Q01DX001 (ip), vehicle: saline with Tween-80) was 120 % of control and 111 % of control.
In the case of `O=C1C(c2ccccc2)=C(c2ccccc2)c2cc(Br)c(Br)cc21`, the T/C (endpoint: mean survival time, dose: 50.0 mg/kg/injection, schedule: Q01DX001 (ip), vehicle: saline with Tween-80) is reported as 93 % of control, the T/C [4] is reported as 93 % of control and the T/C [11] is reported as 93 % of control.
With `CN(C)/C=C(\C#N)C=O` the T/C (endpoint: mean survival time, dose: 18.75 mg/kg/injection, schedule: Q01DX009 (ip), vehicle: saline with Tween-80) was 95 % of control, the T/C (endpoint: mean survival time, dose: 37.5 mg/kg/injection, schedule: Q01DX009 (ip), vehicle: saline with Tween-80) was 101 % of control and the T/C (endpoint: mean survival time, dose: 75.0 mg/kg/injection, schedule: Q01DX009 (ip), vehicle: saline with Tween-80) was 101 % of control. The T/C (endpoint: mean survival time, dose: 75.0 mg/kg/injection, schedule: Q04DX003 (ip), vehicle: saline with Tween-80) was 87 % of control.
In the case of `CN(C)c1ccc(/C=N/N=C(/N)N[N+](=O)[O-])cc1`, the T/C [5] is reported as 94 % of control and the T/C [7] is reported as 97 % of control.
`CCOC(OCC)c1cc(=O)[nH]c(NC(C)=O)n1` was tested, and the T/C [5] was 95 % of control, the T/C [7] was 103 % of control and the T/C [9] was 95 % of control.
`O=C1c2ccccc2C(=O)c2c(O)c(Cc3cccnc3)cc(O)c21` was tested, and the T/C (endpoint: mean survival time, dose: 100.0 mg/kg/injection, schedule: Q01DX009 (ip), vehicle: saline sonified) was 98 % of control, the T/C (endpoint: mean survival time, dose: 200.0 mg/kg/injection, schedule: Q01DX009 (ip), vehicle: saline sonified) was 98 % of control and the T/C (endpoint: mean survival time, dose: 400.0 mg/kg/injection, schedule: Q01DX009 (ip), vehicle: saline sonified) was 102 % of control.
For `Nc1ncnc2c1ncn2CCC(CO)CO`, the T/C [7] was 102 % of control and the T/C [9] was 107 % of control.
For `Clc1ccc(Br)c2c1CCC2`, the T/C (endpoint: mean survival time, dose: 100.0 mg/kg/injection, schedule: Q04DX003 (ip), vehicle: acetone) was 101 % of control and the T/C (endpoint: mean survival time, dose: 200.0 mg/kg/injection, schedule: Q04DX003 (ip), vehicle: acetone) was 100 % of control.
`C[S+](C)(=O)/C=C(\[O-])Nc1ccc(Cl)c(Cl)c1` was tested, and the T/C [12] was 103 % of control, the T/C [13] was 90 % of control and the T/C [14] was 91 % of control.
For `OC(c1ccccc1)c1nc2ccccc2[nH]1` (configuration not stated), the T/C [6] was 98 % of control, the T/C [12] was 101 % of control and the T/C [8] was 95 % of control. The T/C [13] was 96 % of control, the T/C [10] was 96 % of control and the T/C [14] was 100 % of control.
`COc1cc(-c2[o+]c3cc(O)cc(O)c3cc2OC2OC(CO)C(O)C(O)C2O)cc(OC)c1O` (configuration not stated) was tested, and the T/C [15] was 94 % of control, the T/C [16] was 96 % of control and the T/C [6] was 96 % of control.
`O=c1ccccn1CCc1ccccc1` was tested, and the T/C (endpoint: mean survival time, dose: 12.5 mg/kg/injection, schedule: Q01DX009 (ip), vehicle: saline with Tween-80) was 101 % of control, the T/C [15] was 98 % of control and the T/C [16] was 101 % of control.
With `Cc1ccc(NC(=O)N(CCCl)N=O)cc1C` the T/C (endpoint: mean survival time, dose: 1.6 mg/kg/injection, schedule: Q01DX001 (ip), vehicle: other) was 115 % of control, the T/C (endpoint: mean survival time, dose: 5.7 mg/kg/injection, schedule: Q01DX001 (ip), vehicle: other) was 188 % of control and the T/C (endpoint: mean survival time, dose: 8.6 mg/kg/injection, schedule: Q01DX001 (ip), vehicle: other) was 190 % of control. For the same compound, the T/C (endpoint: mean survival time, dose: 13.0 mg/kg/injection, schedule: Q01DX001 (ip), vehicle: other) was 204 % of control, the T/C (endpoint: mean survival time, dose: 20.0 mg/kg/injection, schedule: Q01DX001 (ip), vehicle: other) was 309 % of control and the T/C (endpoint: mean survival time, dose: 29.0 mg/kg/injection, schedule: Q01DX001 (ip), vehicle: other) was 191 % of control.
For `COc1cc(OC)c(/C=C/c2ccc3ccccc3[n+]2C)c(OC)c1`, the T/C (endpoint: mean survival time, dose: 0.31 mg/kg/injection, schedule: Q01DX009 (ip), vehicle: saline) was 103 % of control, the T/C (endpoint: mean survival time, dose: 0.62 mg/kg/injection, schedule: Q01DX009 (ip), vehicle: saline) was 114 % of control and the T/C (endpoint: mean survival time, dose: 1.25 mg/kg/injection, schedule: Q01DX009 (ip), vehicle: saline) was 121 % of control.
With `O=C(Nc1ccc2c3c(ccc(C(=O)Nc4ccccc4)c13)CC2)c1ccccc1` the T/C [12] was 100 % of control, the T/C [13] was 100 % of control and the T/C [14] was 92 % of control.
With `CCCCOP(=O)(N=C=S)OCCCC` the T/C (endpoint: mean survival time, dose: 25.0 mg/kg/injection, schedule: Q04DX002 (ip), vehicle: saline with Tween-80) was 94 % of control, the T/C (endpoint: mean survival time, dose: 50.0 mg/kg/injection, schedule: Q04DX002 (ip), vehicle: saline with Tween-80) was 102 % of control and the T/C (endpoint: mean survival time, dose: 100.0 mg/kg/injection, schedule: Q04DX002 (ip), vehicle: saline with Tween-80) was 90 % of control and 96 % of control.
In the case of `CCOC1(OCC)C2C=CC1C(C#N)(C#N)C2(C#N)C#N`, the T/C [2] is reported as 103 % of control and the T/C [3] is reported as 104 % of control.
